Data on 28 molecules can be found in US11000491B2, “Amino-aryl-benzamide compounds and methods of use thereof” (HEPANOVA, INC., priority 2017, dated 2021).

Assay type in all cases: cell-based
Test [1] deals with Huh7 cells. In words: LD content in Huh7 cells pre-treated with insulin, Oil-Red-O staining, absorbance OD 540 nm. The conditions noted are these: procedure of Example 3, read-out: LD content inhibition (EC50). The method in brief: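 Huh7 cells, mock-treated or pre-treated with 1 mM insulin, were then exposed to compound at the indicated amounts. Lipid droplets stained with Oil Red O and quantified by absorbance at OD 540 nm.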

Test [2] deals with SREBP-1. As to the kind of experiment: SREBP-1 expression in cultured primary human hepatocytes. As to conditions: procedure of Example 6, read-out: SREBP-1 mRNA inhibition (EC50). The method in brief: (§1)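 Primary human hepatocytes in culture exposed to a range of HPN-01 derivative concentrations; SREBP-1 and SREBP-2 mRNA expression then measured to assess inhibition.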
Test [3] has as its system SREBP-2. In words: SREBP-2 expression in cultured primary human hepatocytes. As to conditions: procedure of Example 6, read-out: SREBP-2 mRNA inhibition (EC50). The gist of the method:
as §1

[4] abbreviates: Homo sapiens, Huh-7, Huh7 cells.

Where two headings read alike, the source gives them in different places.

The term EC50 denotes the concentration that produces a half-maximal response. Regarding `CCC(=O)Nc1ccc(-c2cc(-c3ccc(Cl)cc3)cc(C(N)=O)c2N)cc1` [HPN-01408, 4′-amino-4-chloro-4″-propionamido-[1,1′:3′,1″-terphenyl]-5′-carboxamide], the EC50 was determined as 1.5 µM in test [1] (setting [4]); 2.55 µM in test [2] (Homo sapiens, Hepatocyte); 4.37 µM in test [3] (Homo sapiens, Hepatocyte).
For the molecule “decyl (E)-3-(6-amino-5-carbamoyl-4′-sulfamoyl-[1,1′-biphenyl]-3-yl)acrylate [HPN-01119]”, the results for the EC50 in test [1] (Huh7 cells), in test [2] and in test [3] were 1.08 µM, 2.71 µM and 4.17 µM, respectively.
`Nc1c(C(=O)Nc2ccccc2)cc(-c2ccc(Cl)cc2)cc1-c1ccc(S(N)(=O)=O)cc1` [HPN-01611, 4′-amino-4-chloro-N-phenyl-4″-sulfamoyl-[1,1′:3′,1″-terphenyl]-5′-carboxamide]: the EC50 in test [1] (setting [4]) stood at 0.79 µM; in test [2] (Homo sapiens, Hepatocyte), 1.37 µM; in test [3] (Homo sapiens, Hepatocyte) it was 2.24 µM.
The like results for `NC(=O)c1cc(/C=C/C(=O)Nc2ccc(O)cc2)cc(-c2ccc(S(N)(=O)=O)cc2)c1N` [HPN-01122, (E)-2-amino-5-(3-((4-hydroxyphenyl)amino)-3-oxoprop-1-en-1-yl)-4′-sulfamoyl-[1,1′-biphenyl]-3-carboxamide] were, in that order, 2.44 µM, 9.61 µM and 7.29 µM.
With `NC(=O)c1cc(C#CCOC(=O)c2ccc[nH]2)cc(-c2ccc(S(N)(=O)=O)cc2)c1N` [HPN-01222, 3-(6-amino-5-carbamoyl-4′-sulfamoyl-[1,1′-biphenyl]-3-yl)prop-2-yn-1-yl 1H-pyrrole-2-carboxylate], the concentration for a half-maximal effect (EC50) in test [1] (setting [4]) is 1.36 µM; in test [2] (Homo sapiens, Hepatocyte) it was 7.31 µM; in test [3] (Homo sapiens, Hepatocyte), 12.8 µM.
On to `Nc1c(C(=O)NCCO)cc(-c2ccc(Cl)cc2)cc1-c1ccc(S(N)(=O)=O)cc1` [HPN-01607, 4′-amino-4-chloro-N-(2-hydroxyethyl)-4″-sulfamoyl-[1,1′:3′,1″-terphenyl]-5′-carboxamide], for which the EC50 in test [1] (setting [4]) was found to be 3.05 µM; in test [2] (Homo sapiens, Hepatocyte), 6.73 µM; in test [3] (Homo sapiens, Hepatocyte) it was 12.5 µM.
As for `NC(=O)c1cc(-c2ccc(Cl)cc2)cc(-c2ccc(NC(N)=S)cc2)c1N` [HPN-01418, 4′-amino-4-chloro-4″-thioureido-[1,1′:3′,1″-terphenyl]-5′-carboxamide], the EC50 in test [1] (setting [4]) was determined as 0.98 µM; in test [2] (Homo sapiens, Hepatocyte) it was 2.69 µM; in test [3] (Homo sapiens, Hepatocyte), 2.45 µM.
With `CCCC(=O)Oc1cccc(/C=C/c2cc(C(N)=O)c(N)c(-c3ccc(S(N)(=O)=O)cc3)c2)c1` [HPN-01111, (E)-3-(2-(6-amino-5-carbamoyl-4′-sulfamoyl-[1,1′-biphenyl]-3-yl)vinyl)phenyl butyrate], the EC50 in test [1] (setting [4]) was 0.75 µM; in test [2] (Homo sapiens, Hepatocyte) it was 2.08 µM; in test [3] (Homo sapiens, Hepatocyte), 2.44 µM.
The like results for `CC(=O)Nc1ccc(/C=C/c2cc(C(N)=O)c(N)c(-c3ccc(S(N)(=O)=O)cc3)c2)cc1` [HPN-01106, (E)-5-(4-acetamidostyryl)-2-amino-4′-sulfamoyl-[1,1′-biphenyl]-3-carboxamide] were, in that order, 2.85 µM, 6.35 µM and 6.45 µM.
The like results for `CCCC(=O)Nc1c(C(N)=O)cc(-c2ccc(Cl)cc2)cc1-c1ccc(NC(N)=O)cc1` [HPN-01519, 4′-butyramido-4-chloro-4″-ureido-[1,1′:3′,1″-terphenyl]-5′-carboxamide] were, in that order, 0.81 µM, 1.51 µM and 2.75 µM.
The like results for `NCC(=O)Nc1c(C(N)=O)cc(-c2ccc(Cl)cc2)cc1-c1ccc(S(N)(=O)=O)cc1` [HPN-01504, 4′-(2-aminoacetamido)-4-chloro-4″-sulfamoyl-[1,1′:3′,1″-terphenyl]-5′-carboxamide] were, in that order, 0.46 µM, 0.73 µM and 1.11 µM.
`NC(=O)c1cc(/C=C/C(=O)Nc2ccc(Cl)cc2)cc(-c2ccc(S(N)(=O)=O)cc2)c1N` [HPN-01130, (E)-2-amino-5-(3-((4-chlorophenyl)amino)-3-oxoprop-1-en-1-yl)-4′-sulfamoyl-[1,1′-biphenyl]-3-carboxamide]: the EC50 in test [1] (setting [4]) was 0.06 µM; in test [2] (Homo sapiens, Hepatocyte), 0.97 µM; in test [3] (Homo sapiens, Hepatocyte), 1.8 µM.
The like results for `NC(=O)c1cc(-c2ccc(Cl)cc2)cc(Nc2ccc(S(N)(=O)=O)cc2)c1N` [HPN-01402, 4-amino-4′-chloro-5-((4-sulfamoylphenyl)amino)-[1,1′-biphenyl]-3-carboxamide] were, in that order, 0.6 µM, 1.18 µM and 2.5 µM.
The like results for `CC(C)OC(=O)c1ccc(-c2cc(C(N)=O)c(N)c(-c3ccc(S(N)(=O)=O)cc3)c2)cc1` [HPN-01303, isopropyl 4′-amino-5′-carbamoyl-4″-sulfamoyl-[1,1′:3′,1″-terphenyl]-4-carboxylate] were, in that order, 1.3 µM, 6.62 µM and 10.5 µM.
“(E)-2-amino-5-(3-(cyclohexylamino)-3-oxoprop-1-en-1-yl)-4′-sulfamoyl-[1,1′-biphenyl]-3-carboxamide [HPN-01133]”: the EC50 in test [1] (Huh7 cells) was 0.7 µM; in test [2], 2.55 µM; in test [3], 3.07 µM.
As to `NC(=O)c1cc(-c2ccc(Cl)cc2)cc(NCc2ccc(S(N)(=O)=O)cc2)c1N` [HPN-01426, 4-amino-4′-chloro-5-((4-sulfamoylbenzyl)amino)-[1,1′-biphenyl]-3-carboxamide], the EC50 in test [1] (setting [4]) turned out to be 1.15 µM; in test [2] (Homo sapiens, Hepatocyte), 11 µM; in test [3] (Homo sapiens, Hepatocyte), 9.4 µM.
The like results for `NC(=O)c1cc(C#CCOC(=O)c2ccccc2F)cc(-c2ccc(S(N)(=O)=O)cc2)c1N` [HPN-01213, 3-(6-amino-5-carbamoyl-4′-sulfamoyl-[1,1′-biphenyl]-3-yl)prop-2-yn-1-yl 2-fluorobenzoate] were, in that order, 1.29 µM, 4.55 µM and 4.88 µM.
The like results for `CC(=O)Oc1ccc(/C=C/c2cc(C(N)=O)c(N)c(-c3ccc(S(N)(=O)=O)cc3)c2)cc1` [HPN-01105, (E)-4-(2-(6-amino-5-carbamoyl-4′-sulfamoyl-[1,1′-biphenyl]-3-yl)vinyl)phenyl acetate] were, in that order, 1.09 µM, 3.24 µM and 5.26 µM.
The like results for `NC(=O)c1cc(C#CCOC(=O)c2ccccn2)cc(-c2ccc(S(N)(=O)=O)cc2)c1N` [HPN-01221, 3-(6-amino-5-carbamoyl-4′-sulfamoyl-[1,1′-biphenyl]-3-yl)prop-2-yn-1-yl picolinate] were, in that order, 0.77 µM, 1.67 µM and 3.47 µM.
Turning to `NC(=O)c1cc(-c2cc(Cl)c[nH]2)cc(-c2ccc(S(N)(=O)=O)cc2)c1N` [HPN-01309, 2-amino-5-(4-chloro-1H-pyrrol-2-yl)-4′-sulfamoyl-[1,1′-biphenyl]-3-carboxamide], the EC50 in test [1] (setting [4]) was determined as 3.5 µM; in test [2] (Homo sapiens, Hepatocyte), 8.16 µM; in test [3] (Homo sapiens, Hepatocyte), 8.96 µM.
The like results for `NC(=O)c1cc(-c2c[nH]c(Cl)c2)cc(-c2ccc(S(N)(=O)=O)cc2)c1N` [HPN-01310, 2-amino-5-(5-chloro-1H-pyrrol-3-yl)-4′-sulfamoyl-[1,1′-biphenyl]-3-carboxamide] were, in that order, 10.5 µM, 13 µM and 23.9 µM.
The like results for `NC(=O)c1cc(Sc2ccc(Cl)cc2)cc(-c2ccc(S(N)(=O)=O)cc2)c1N` [HPN-01314, 2-amino-5-((4-chlorophenyl)thio)-4′-sulfamoyl-[1,1′-biphenyl]-3-carboxamide] were, in that order, 1.18 µM, 4.57 µM and 7.71 µM.
In the case of `NC(=O)c1cc(/C=C/c2cccc(Cl)c2)cc(-c2ccc(S(N)(=O)=O)cc2)c1N` [HPN-01102, (E)-2-amino-5-(3-chlorostyryl)-4′-sulfamoyl-[1,1′-biphenyl]-3-carboxamide], the EC50 is 0.46 µM in test [1] (setting [4]); 1.61 µM in test [2] (Homo sapiens, Hepatocyte); 3.37 µM in test [3] (Homo sapiens, Hepatocyte).
Regarding `Nc1c(C(=O)Nc2ccc(F)c(F)c2)cc(-c2ccc(Cl)cc2)cc1-c1ccc(S(N)(=O)=O)cc1` [HPN-01615, 4′-amino-4-chloro-N-(3,4-difluorophenyl)-4″-sulfamoyl-[1,1′:3′,1″-terphenyl]-5′-carboxamide], the EC50 turned out to be 1.15 µM in test [1] (setting [4]); 6.69 µM in test [2] (Homo sapiens, Hepatocyte); 11.7 µM in test [3] (Homo sapiens, Hepatocyte).
The like results for `NC(=O)c1cc(C#Cc2ccccc2)cc(-c2ccc(S(N)(=O)=O)cc2)c1N` [HPN-01202, 2-amino-5-(phenylethynyl)-4′-sulfamoylbiphenyl-3-carboxamide] were, in that order, 0.29 µM, 0.64 µM and 0.9 µM.
The like results for `NC(=O)c1cc(-c2ccc(Cl)cc2)cc(Oc2cccc(S(N)(=O)=O)c2)c1N` [HPN-01412, 4-amino-4′-chloro-5-(3-sulfamoylphenoxy)-[1,1′-biphenyl]-3-carboxamide] were, in that order, 2.07 µM, 3.09 µM and 6.11 µM.
In the case of `Cc1cccc(C(=O)OCC#Cc2cc(C(N)=O)c(N)c(-c3ccc(S(N)(=O)=O)cc3)c2)c1` [HPN-01215, 3-(6-amino-5-carbamoyl-4′-sulfamoyl-[1,1′-biphenyl]-3-yl)prop-2-yn-1-yl 3-methylbenzoate], the EC50 in test [1] (setting [4]) turned out to be 0.61 µM; in test [2] (Homo sapiens, Hepatocyte), 3.72 µM; in test [3] (Homo sapiens, Hepatocyte), 6.78 µM.
Regarding “(E)-2-amino-5-(3-((4-fluorophenethyl)amino)-3-oxoprop-1-en-1-yl)-4′-sulfamoyl-[1,1′-biphenyl]-3-carboxamide [HPN-01132]”, the results for the EC50 in test [1] (Huh7 cells), in test [2] and in test [3] were 0.07 µM, 0.36 µM and 1.55 µM, respectively.
